The conditions of data set [1]: in vivo. The text has this:
Toxicity of peptide, compounds, and compositions can be assessed for toxicity. Useful factors for assessing toxicity include body weight, serum cholesterol and triglyceride, and weight of liver and spleen. Liver and kidney functions can be monitored by blood tests.

A further data set concerns the target T1, p32 protein (Homo sapiens, UniProt Q07021).
T1 construct: 6xHis; host or cells: Rosetta-gami-2 cells (Novagen); an E. coli strain by own knowledge
T1 sequence (Q07021 74-282): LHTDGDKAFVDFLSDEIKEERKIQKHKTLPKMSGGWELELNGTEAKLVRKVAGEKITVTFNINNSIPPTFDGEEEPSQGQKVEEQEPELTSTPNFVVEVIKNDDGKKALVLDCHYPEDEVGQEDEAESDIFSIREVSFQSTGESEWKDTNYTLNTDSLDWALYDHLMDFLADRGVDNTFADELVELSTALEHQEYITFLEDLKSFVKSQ
Put plainly: Fluorescence polarization binding of FAM-labeled peptides to p32 (KD). The note with it: affinity of binding to p32. The procedure: FIGS. 2A-2D are graphs showing FP- and phage binding-based validation of p32 binding peptides and hit compounds. […] Measurements were performed with PheraStar FS plate reader (BMG Labtech, Ortenberg, Germany) on 384-well plate. (B) Affinity of the 7 hit compounds in dose-dependent (8.25 μM to 100 μM) inhibition of FAM-TT1 binding to p32 in FP assay. (C) Assessment of hit compound binding to a non-target secondary protein, NRP-1, to determine the specificity of the hit compounds in FP assay. A known NRP-1 binding peptide, RPARPAR (SEQ ID NO:18), was used as a control. (D) Effect of the hit compounds on the TT1 phage binding to p32 protein. TT1 phage binding to p32 in the presence of 100 μM hit compounds was determined in ELISA-type of binding assay. Each data point presents average±S.D., n=4.
FIG. 6 is a graph showing the effect of buffer solution on interaction of TT1 and p32. […] The binding was measured by fluorescence polarization (FP) and observed as increased FP value. Binding constants (KD) were calculated by fitting the binding curves into Michaelis-Menten kinetics. […]
Fluorescence polarization (FP)-based assay was used for solution-based screening of compound libraries for p32 binding compounds. […] The protein was purified by IMAC using HIS-select resin (Sigma) with an imidizole gradient from 20-300 mM and eluted fractions were analyzed on analytical SDS-PAGE. […]
(Polarisation of emitted light reports the rotation of a fluorescent probe.)

Structures are written as SMILES. Where a SMILES comes first, the peptide text is derived from it. Bridges are numbered along the chain shown (N, C = ends).

As to `C[C@@H](O)[C@@H]1NC(=O)[C@H](CCCNC(=N)N)NC(=O)[C@H](CCCCN)NC(=O)[C@H](CC(N)=O)NC(=O)CNC(=O)[C@@H](N)CSSC[C@@H](C(=O)O)NC(=O)CNC(=O)[C@H](CCCNC(=N)N)NC1=O` [LyP-1, CGNKRTRGC], the “toxicity (body weight, serum cholesterol and triglyceride, weight of liver and spleen, liver and kidney functions)” value in data set [1] was “no differences between LyP-1 and control groups”.

Regarding `C[C@@H]1NC(=O)CNC(=O)[C@H](CCCNC(=N)N)NC(=O)[C@H](CCCCN)NC(=O)[C@@H](N)CSSC[C@@H](C(=O)O)NC(=O)[C@H]([C@@H](C)O)NC(=O)[C@H](CO)NC(=O)[C@H](CCCNC(=N)N)NC1=O` [TT1, CKRGARSTC] (H-CKRGARSTC-OH; disulfide 1-9), binding at p32 protein was characterised by a dissociation constant (Kd) of 2.3 µM.

The record behind these values is patent US20200268832A1, “COMPOSITIONS FOR DELIVERY TO AND TREATMENT OF ATHEROSCLEROTIC PLAQUES” (Sanford Burnham Prebys Medical Discovery Institute, priority 2015, published 2020).
